From US7812022B2 (GlaxoSmithKline LLC, priority 2004, dated 2010) come the findings set out here.

Assay [1] concerns the target T1, ErbB2 or EGFR.
T1 construct: enzymes purified from a baculovirus expression system; Reagent production was conducted essentially as described in Brignola, P. S., et al, (2002) J. Biol. Chem. 277(2): 1576-1585
The assay can be described thus: ErbB family substrate phosphorylation enzyme assay (HTRF), Method A or Method B. Type of assay: biochemical. Put shortly:
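Baculovirus-expressed EGFR or ErbB2 (0.8 or 10 nM in enzyme mix) phosphorylates biotinylated Peptide C with 20 µM ATP and 0.8 µM peptide (substrate-mix levels), MnCl2, pH 7.5. Reaction ran 90 min at 20 °C with EDTA stop and HTRF anti-phosphotyrosine read. Method A: enzyme added last; Method B: 1 h enzyme–compound preincubation.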
On the technique in general: TR-FRET usually uses a lanthanide donor and a delayed reading to cut background.

Assay [2] deals with BT474 and HN5 tumor cell lines. The assay can be described thus: Methylene blue growth inhibition assay (cellular Method A). Particulars: Homo sapiens, BT-474, 72 h, 3 days, read-out: Activity (Method): growth inhibition IC50 class. It is filed as cell-based, Human. Put shortly:
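Growth inhibition measured by methylene blue staining of biomass (OD 620) after 3 days' compound exposure at 37° C, final DMSO 0.3%. Cell lines: BT474 (10,000/well), HN5 (3,000/well) and Colo205, all in DMEM with 10% FBS; IC50 fitted by nonlinear regression against vehicle-treated wells.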

For assay [3], the system named is Colo205 tumor cell lines. The assay can be described thus: Methylene blue growth inhibition assay (cellular Method A), Colo205. Particulars: Homo sapiens, COLO 205, 72 h, 3 days, read-out: Activity (Method): growth inhibition IC50 class. It is filed as cell-based, Human. The method, then: Human breast (BT474) and head and neck (HN5) were cultured in low glucose DMEM (Life Technologies 12320-032) containing 10% fetal bovine serum (FBS). Human colon tumor cells (Colo205) were cultured in DMEM (Invitrogen, 10564) containing 10% FBS. The SV40 transformed human mammary epithelial cell line HB4a was transfected with either human H-ras cDNA (HB4a r4.2) or the human c-ErbB2 cDNA (HB4a c5.2). The HB4a clones were cultured in RPMI containing 10% FBS, insulin (5 g/mL), hydrocortisone (5 g/mL), supplemented with the selection agent hygromycin B (50 g/mL). All lines were grown in a humidified incubator at 37° C. in 95% air, 5% CO2. Cells were harvested using trypsin/EDTA, counted using a haemocytometer, and plated in 100 microliters of the appropriate media, at the following densities, in a 96-well tissue culture plate (Falcon 3075): BT474 10,000 cells/well, HN5 3,000 cells/well. The next day, compounds were diluted in DMEM containing […] gentamicin, at twice the final required concentration, from 10 mM stock solutions in DMSO. 100 microliters/well of these dilutions were added to the 100 microliters of media currently on the cell plates. Medium containing 0.6% DMSO was added to control wells. Compounds diluted in DMEM were added to all cell lines. The final concentration of DMSO in all wells was 0.3%. Cells were returned to the incubator (37° C., 10% CO2) for 3 days. Medium was then removed by aspiration. Cell biomass was estimated by staining cells with 90 microliters per well methylene blue (Sigma M9140, 0.5% in 1:1 ethanol:water), and incubation at rt for at least 30 minutes. Stain was removed, and the plates rinsed by immersion in deionized water and air-dried. To release stain from the cells 100 microliters of solubilization solution was added (1% N-lauroyl sarcosine, Sodium salt, Sigma L5125, in PBS), and plates were shaken gently for about 30 minutes. Optical density at 620 nm was measured on a microplate reader. Percent inhibition of cell growth was calculated relative to vehicle treated control wells. Concentration of compound that inhibits 50% of control cell growth (IC50) was interpolated using nonlinear regression (Levenberg-Marquardt) and the equation, y=Vmax*(1−(x/(K+x)))+Y2, where “K” was equal to the IC50. Method B: Celltiter Glo® Growth Inhibition Assays

Where [4] appears, read: Method B: enzyme mix pre-incubated with compound 1 hour at 20° C., started with substrate mix.
The mark [5] stands for this setting: Method A: substrate mix added first, reaction started with enzyme mix.

In the case of `Cc1ccc(F)c(C(=O)Nc2cccc(-c3nn4ccccc4c3-c3ccnc(Nc4cccc(OCCN(C)C)c4)n3)c2)c1F` [Example 190, N-[3-(3-{2-[(3-{[2-(Dimethylamino)ethyl]oxy}phenyl)amino]-4-pyrimidinyl}pyrazolo[1,5-a]pyridin-2-yl)phenyl]-2,6-difluoro-3-methylbenzamide], the “Activity (Method): pIC50 class against ErbB2 or EGFR” value (from here on “Activity (Method): pIC50 class”) in assay [1] (setting [4]) is recorded as “+++ (B) (at least one pIC50 measurement of greater than 7 against either ErbB2 or EGFR)”. Also, the IC50 in assay [2] was below 100 nM; in assay [3], 100 to 1000 nM.

For the molecule `O=C(Nc1cccc(-c2nn3ccccc3c2-c2ccnc(Nc3ccc(OCCCS(=O)(=O)O)c(Cl)c3)n2)c1)c1c(F)cccc1F` [Example 161, 3-{[2-Chloro-4-({4-[2-(3-{[(2,6-difluorophenyl)carbonyl]amino}-phenyl)pyrazolo[1,5-a]pyridin-3-yl]-2-pyrimidinyl}amino)phenyl]oxy}-1-propanesulfonic acid], the “Activity (Method): pIC50 class” value in assay [1] (setting [4]) is on record as “+++ (B) (at least one pIC50 measurement of greater than 7 against either ErbB2 or EGFR)”. Moreover, the half-inhibitory concentration (IC50) in assay [2] and in assay [3] was above 1000 nM each time.

For `Cn1cncc1C(=O)Nc1cccc(-c2nn3ccccc3c2-c2ccnc(Nc3cccc(F)c3)n2)c1` [Example 84, N-[3-(3-{2-[(3-fluorophenyl)amino]-4-pyrimidinyl}-pyrazolo[1,5-a]pyridin-2-yl)phenyl]-1-methyl-1H-imidazole-5-carboxamide], the “Activity (Method): pIC50 class” value in assay [1] (setting [4]) is “+++ (B) (at least one pIC50 measurement of greater than 7 against either ErbB2 or EGFR)”. In addition, the IC50 in assay [2] and in assay [3] was above 1000 nM throughout.

For `C=CCN(C)CCOc1cccc(Nc2nccc(-c3c(-c4cccc(NC(=O)c5c(F)cccc5F)c4)nn4ccccc34)n2)c1` [Example 195, 2,6-Difluoro-N-{3-[3-(2-{[3-({2-[methyl(2-propen-1-yl)amino]ethyl}oxy)phenyl]amino}-4-pyrimidinyl)pyrazolo[1,5-a]pyridin-2-yl]phenyl}benzamide], in assay [1] (setting [4]), the “Activity (Method): pIC50 class” value is listed as “+++ (B) (at least one pIC50 measurement of greater than 7 against either ErbB2 or EGFR)”. Moreover, the results for the IC50 in assay [2] and in assay [3] were 100 to 1000 nM and above 1000 nM, respectively.

As to `CC(c1cccc(Nc2nccc(-c3c(-c4cccc(NC(=O)c5c(F)cccc5F)c4)nn4ccccc34)n2)c1)S(C)(=O)=O` (racemic) [Example 117, 2,6-Difluoro-N-(3-{3-[2-({3-[1-(methylsulfonyl)ethyl]-phenyl}amino)-4-pyrimidinyl]pyrazolo[1,5-a]pyridin-2-yl}phenyl)benzamide], in assay [1] (setting [5]), the “Activity (Method): pIC50 class” value was “++ (A) (at least one pIC50 measurement greater than 6 against either ErbB2 or EGFR but no measurement greater than pIC50 of 7)”. Besides, the IC50 was below 100 nM in assay [2] and 100 to 1000 nM in assay [3].

Take `O=C(NC1CC1)c1ccc(Nc2nccc(-c3c(-c4cccc(NC(=O)c5c(F)cccc5F)c4)nn4ccccc34)n2)cc1` [Example 103, N-(3-{3-[2-({4-[(cyclopropylamino)carbonyl]phenyl}-amino)-4-pyrimidinyl]pyrazolo[1,5-a]pyridin-2-yl}phenyl)-2,6-difluorobenzamide]: the “Activity (Method): pIC50 class” value in assay [1] (setting [4]) is listed as “+++ (B) (at least one pIC50 measurement of greater than 7 against either ErbB2 or EGFR)”. Further, the 50% inhibitory concentration (IC50) in assay [2] is below 100 nM; in assay [3], 100 to 1000 nM.

For `O=C(Nc1cccc(-c2nn3ccccc3c2-c2ccnc(Nc3ccccc3)n2)c1)c1cc(F)ccc1F` [Example 43, 2,5-Difluoro-N-(3-{3-[2-(phenylamino)-4-pyrimidinyl]pyrazolo[1,5-a]pyridin-2-yl}phenyl)benzamide], the “Activity (Method): pIC50 class” value in assay [1] (setting [5]) is recorded as “+++ (A) (at least one pIC50 measurement of greater than 7 against either ErbB2 or EGFR)”. Further, the IC50 in assay [2] is 100 to 1000 nM; in assay [3], above 1000 nM.

`O=C(Nc1cccc(-c2nn3ccccc3c2-c2ccnc(Nc3ccc(OCCN4CCCCC4)c(F)c3)n2)c1)c1c(F)cccc1F` [Example 134, 2,6-Difluoro-N-[3-(3-{2-[(3-fluoro-4-{[2-(1-piperidinyl)ethyl]oxy}phenyl)amino]-4-pyrimidinyl}pyrazolo[1,5-a]pyridin-2-yl)phenyl]benzamide]: the “Activity (Method): pIC50 class” value in assay [1] (setting [5]) is “+++ (A) (at least one pIC50 measurement of greater than 7 against either ErbB2 or EGFR)”. Moreover, the IC50 is below 100 nM in assay [2] and above 1000 nM in assay [3].

With `NS(=O)(=O)c1cccc(Nc2nccc(-c3c(-c4cccc(NC(=O)c5c(F)cccc5F)c4)nn4ccccc34)n2)c1` [Example 118, N-{3-[3-(2-{[3-(aminosulfonyl)phenyl]amino}-4-pyrimidinyl)pyrazolo[1,5-a]pyridin-2-yl]phenyl}-2,6-difluorobenzamide], the “Activity (Method): pIC50 class” value in assay [1] (setting [4]) was “+++ (B) (at least one pIC50 measurement of greater than 7 against either ErbB2 or EGFR)”. The IC50 is below 100 nM in assay [2] and 100 to 1000 nM in assay [3].

For `CCS(=O)(=O)c1ccc(OC)c(Nc2nccc(-c3c(-c4cccc(NC(=O)c5c(F)cccc5F)c4)nn4ccccc34)n2)c1` [Example 121, N-{3-[3-(2-{[5-(ethylsulfonyl)-2-(methyloxy)phenyl]-amino}-4-pyrimidinyl)pyrazolo[1,5-a]pyridin-2-yl]phenyl}-2,6-difluorobenzamide], the “Activity (Method): pIC50 class” value in assay [1] (setting [5]) is given as “+++ (A) (at least one pIC50 measurement of greater than 7 against either ErbB2 or EGFR)”. Further, the IC50 in assay [2] is 100 to 1000 nM; in assay [3], above 1000 nM.

Turning to `CCN(CC)CCCOc1ccc(Nc2nccc(-c3c(-c4cccc(NC(=O)c5c(F)cccc5F)c4)nn4ccccc34)n2)cc1F` [Example 131, N-[3-(3-{2-[(4-{[3-(Diethylamino)propyl]oxy}-3-fluorophenyl)amino]-4-pyrimidinyl}pyrazolo[1,5-a]pyridin-2-yl)phenyl]-2,6-difluorobenzamide], the “Activity (Method): pIC50 class” value in assay [1] (setting [4]) was “+++ (B) (at least one pIC50 measurement of greater than 7 against either ErbB2 or EGFR)”. Also, the IC50 in assay [2] was below 100 nM; in assay [3], 100 to 1000 nM.

For the molecule `O=C(Nc1cccc(-c2nn3ccccc3c2-c2ccnc(Nc3ccc(-c4cc[nH]n4)cc3)n2)c1)c1c(F)cccc1F` [Example 101, 2,6-Difluoro-N-{3-[3-(2-{[4-(1H-pyrazol-3-yl)phenyl]amino}-4-pyrimidinyl)pyrazolo[1,5-a]pyridin-2-yl]phenyl}benzamide], the 50% inhibitory concentration (IC50) in assay [2] was 100 to 1000 nM; in assay [3] it was above 1000 nM.

Take `CN(C)C1Cc2ccc(Nc3nccc(-c4c(-c5cccc(NC(=O)c6c(F)cccc6F)c5)nn5ccccc45)n3)cc2C1` (centres unmarked) [Example 176, N-{3-[3-(2-{[2-(Dimethylamino)-2,3-dihydro-1H-inden-5-yl]amino}-4-pyrimidinyl)pyrazolo[1,5-a]pyridin-2-yl]phenyl}-2,6-difluorobenzamide]: the IC50 in assay [2] is below 100 nM; in assay [3], 100 to 1000 nM.

On to `NC(=O)c1ccc(Nc2nccc(-c3c(-c4cccc(NC(=O)c5c(F)cccc5F)c4)nn4ccccc34)n2)cc1` [Example 104, N-{3-[3-(2-{[4-(Aminocarbonyl)phenyl]amino}-4-pyrimidinyl)pyrazolo[1,5-a]pyridin-2-yl]phenyl}-2,6-difluorobenzamide-ethane (1:1)], for which the IC50 is below 100 nM in assay [2] and 100 to 1000 nM in assay [3].

In the case of `O=C(Nc1cccc(-c2nn3ccccc3c2-c2ccnc(Nc3cccc(F)c3)n2)c1)c1c(F)cccc1Cl` [Example 37, 2-Chloro-6-fluoro-N-[3-(3-{2-[(3-fluorophenyl)amino]-4-pyrimidinyl}pyrazolo[1,5-a]pyridin-2-yl)phenyl]benzamide], the “Activity (Method): pIC50 class” value in assay [1] (setting [4]) was “+++ (B) (at least one pIC50 measurement of greater than 7 against either ErbB2 or EGFR)”. Also, the IC50 in assay [2] is below 100 nM.

As usually defined, the IC50 is the concentration needed to halve the response being measured.
